Entries after “also recorded” stand apart in the source; their conditions may differ.
Experiments:
SERCA2a = target: T1, SERCA2a (Mus musculus, UniProt O55143); experiment: Caffeine-induced Ca2+ release assay on HL-1 cells; type: cell-based; set-up: key to SERCA2a HL-1 effect class: +++: a strong effect, comparable to or greater than that of a known compounds at a given concentration (25 µM in RyR2 R-CEPIA1er assay, 10 µM in caffeine assay and on microsomal membrane vesicles); ++: moderate effect; +: observable effect; -: no effect
T1 construct: host or cells: HL-1 cardiac cells
Method: HL-1 cardiac cells (SCC065, Merck KGaA, Darmstadt, Germany) were cultivated in Claycomb's Medium (51800C, Merck KGaA, Darmstadt, Germany), supplemented with Glutamax, 10% fetal bovine serum, 0.9% Penicillin/Streptomycin and 0.1 mM Noradrenaline (Merck KGaA, Darmstadt, Germany) on fibronectin/gelatin (Merck KGaA, Darmstadt, Germany) coated culture bottles or plates two days before plating.
HL-1 cardiac cells (50000 per well) were cultivated for 24 h in black-walled, clear-bottom 96-well micro-plates (Corning, Amsterdam, The Netherlands) covered with fibronectin/gelatin (Merck KGaA, Darmstadt, Germany) in a humidified incubator at 37 °C and 5% CO2.
Changes in Ca^2+ concentration were measured on a multiwell plate reader TECAN Spark 20M using FLIPR 6 Calcium Assay Kit from Molecular Devices (Molecular Devices LLC, München, Germany) at 37 °C. The 1000 × stock solutions of the test compounds were prepared in DMSO. 100 µl solution of test compound in Tyrode's solution containing FLIPR Calcium 6 dye was incubated for 2 hours at 37°C and 5% COz in a humidified incubator. The time courses were recorded in each well. Fluorescence was evoked at 485 nm excitation wavelength and read out in a bottom-read mode at 525 nm. Data were recorded every 2 s, exposure - 20 flashes, excitation bandwidth - 10 nm, emission bandwidth - 15 nm. To initiate Ca^2+ influx, 25 µl of 50 mM caffeine solution in Tyrode's solution containing 2 mM CaCl2 was injected in each well (speed 100 µl/s) at 10 s time point, resulting in 10 mM final concentration in the well. The differences between the caffeine induced peak minus basal fluorescence, ΔFCaff, were taken for the analysis. The Tyrode's solution + 0.1 v/v% DMSO was used as a control. The dose response curves were calculated using the software package GraphPad Prism version 8.3.1. All data are presented as mean ± S.D. from 8 independent experiments. Y=Bottom + (Top-Bottom)/(1+10^((LogEC50-X)*HillSlope)) was used where HillSlope describes the steepness of the curve, Top and Bottom are plateaus in the units of the Y axis.
The SERCA2a activity of the compounds was confirmed in two orthogonal biochemical assays: caffeine-induced Ca^2+ release assay and nicotinamide adenine dinucleotide (NADH) assay on microsomal membrane vesicles from mouse heart ventricles (mouse SER) and HEK-293T cells (HEK-293 ER). The effect of caffeine-induced Ca^2+ release in HL-1 cells, immortalized mouse cardiomyocytes, treated with the cytosolic Ca^2+ indicator FLIPR Calcium 6 (Molecular Devices) was investigated.
When caffeine binds to the RyR channel, it interacts with specific amino acids of the protein, and this interaction causes conformational changes in the protein's structure [A. des Georges, O. B. Clarke, R. Zalk, Q. Yuan, K. J. Condon, R. A. Grassucci, W. A. Hendrickson, A. R. Marks, J. Frank, Structural Basis for Gating and Activation of RyR1. Cell 2016, 167, 145 - 157.e17]. This opens the RyR2 channel pore, enabling the mass release of calcium ions from the SER Ca^2+ store.

HL-1 cardiac cells = experiment: CytoTox-Glo cytotoxicity assay (cell viability); type: cell-based; conditions: CytoTox-Glo assay in 100 µM solutions after 24 h incubation
Method: Cell viability was assessed using CytoTox-Glo™ Cytotoxicity Assay according to the manufacturing procedure (Promega GmbH). Briefly, HL-1 cardiac cells were cultivated for 24 h in black-walled, clear-bottom 96-well micro-plates (Corning) covered with fibronectin in DMEM, containing different concentrations of the tested compound (10,000 cells/well). Luminescence of a luminogenic peptide substrate was measured before and after addition of the lysis reagent (digitonin). The viable cell contribution was determined by a subtractive method. 0.1% DMSO treated cell were taken as a control.
(§1) The membrane permeability of the derivatives was determined using cell-free transport models (PermeaPad®, innoME GmbH), and permeability rates (Pe), which are a measure of how fast a compound can cross a membrane, were established (Table 1).

[1] = Membrane permeability, PermeaPad plate (cell-free transport model); type: in vitro ADME
Method: Membrane permeability was assessed using PermeaPad® Plate according to the manufacturing procedure (innoME GmbH, Espelkamp, Germany). Briefly, 200 µl water was added into acceptor plate. 200 µl of 100 - 500 µM test compound in water was added directly to the well membranes of the donor plate. The donor plate contains a biomimetic membrane for simulating passive mass transfer through different barriers in the body. Then the donor plate was placed into the acceptor plate wells and incubated at room temperature for 24 hours in dark. To determine peak absorbance of test compounds, absorbance spectra of acceptor solutions and initial solutions for each test compound were read out. The Permeability Rate (Pe) was calculated using the formula: Pe = C × −ln(1−(ODA)/(ODE)) cm/s, [formula]
where ODA is the absorbance of acceptor solution, ODE is the absorbance of the standard solution; if the compound is able to permeabilize the membrane and fully reach equilibrium, 250 µM will be the final concentration of solution in the donor and acceptor wells. The coefficient C was calculated using the formula: C = (VD × VA)/((VD+VA) × Area × time), [formula] where VA - acceptor volume (cm^3), VD - donor volume (cm^3), membrane area 0.24 cm^2, time is 86,400 s.
as §1

T1 sequence (O55143 1-998 isoform O55143-2): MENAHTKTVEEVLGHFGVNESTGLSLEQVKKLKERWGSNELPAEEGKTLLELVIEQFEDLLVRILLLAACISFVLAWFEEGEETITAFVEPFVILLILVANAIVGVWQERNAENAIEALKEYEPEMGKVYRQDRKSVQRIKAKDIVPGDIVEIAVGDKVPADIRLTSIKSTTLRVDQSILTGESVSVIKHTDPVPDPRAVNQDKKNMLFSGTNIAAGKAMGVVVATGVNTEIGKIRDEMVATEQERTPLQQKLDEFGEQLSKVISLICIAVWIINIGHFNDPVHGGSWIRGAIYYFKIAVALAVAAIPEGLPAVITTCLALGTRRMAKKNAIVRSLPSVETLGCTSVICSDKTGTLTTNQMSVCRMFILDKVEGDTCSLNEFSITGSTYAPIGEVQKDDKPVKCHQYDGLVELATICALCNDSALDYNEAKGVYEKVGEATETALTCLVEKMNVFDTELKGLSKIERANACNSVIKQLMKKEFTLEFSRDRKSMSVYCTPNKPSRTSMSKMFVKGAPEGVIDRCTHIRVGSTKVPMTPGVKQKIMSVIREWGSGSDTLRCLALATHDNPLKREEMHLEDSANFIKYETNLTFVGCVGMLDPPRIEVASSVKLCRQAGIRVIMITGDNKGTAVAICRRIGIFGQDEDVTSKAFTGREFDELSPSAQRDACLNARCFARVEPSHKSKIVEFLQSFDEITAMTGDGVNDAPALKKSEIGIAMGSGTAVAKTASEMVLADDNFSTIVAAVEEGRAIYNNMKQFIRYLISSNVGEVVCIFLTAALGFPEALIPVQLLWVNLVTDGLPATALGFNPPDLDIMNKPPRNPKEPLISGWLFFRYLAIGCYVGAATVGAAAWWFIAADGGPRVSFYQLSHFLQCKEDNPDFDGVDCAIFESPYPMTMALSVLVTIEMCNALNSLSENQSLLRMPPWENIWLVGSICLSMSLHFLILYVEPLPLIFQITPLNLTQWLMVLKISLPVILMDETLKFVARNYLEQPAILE

- SERCA2a HL-1 effect class (SERCA2a; 10 µM in caffeine assay): -
- Pe rating in words (low / medium / high; poor) [1]: medium
- Pe ([1]; permeability rate, room temperature, 24 hours): 1.2 10^-6 cm/s
Compound: COc1ccc2c(c1)CN(C)CCS2 [Compound S107, reference compound]
- effect in caffeine-induced Ca^2+ release assay, in words (SERCA2a; HL-1 cells incubated 2 h with compound, 10 mM caffeine): no concentration dependent effect; also recorded: didn't show any effects on SR Ca^2+ content
- Viability (HL-1 cardiac cells): 98%

— patent EP4548971A1, “1,4-BENZOTHIAZEPINES AND RELATED COMPOUNDS WITH CYCLOPROPANOL GROUPS AS MULTI-TARGETED DRUGS” (Georg-August-Universität Göttingen Stiftung Öffentlichen …, priority 2023, dated 2025)
